Tested on: ob/ob mice
Test: Oral glucose tolerance test (OGTT) in ob/ob mice
Type: in vivo
Conditions: bi-daily 50 mg/kg during 28 days, AUC from -15 to 120 min
Experimental: Ob/ob or obese mice are leptin-deficient mice that eat excessively and become profoundly obese, hyperinsulinemic and hyperglycemic. It is an animal model of type II diabetes. Such model can be used for oral glucose tolerance tests (OGTTs). A total of sixteen (16) male ob/ob mice (6 weeks of age) were obtained from Harlan. Upon arrival to the animal unit, mice were housed 4 per cage in rodent cages mounted with feeders containing regular chow. The mice were put in a 12/12 h light-dark cycle (light from 0600-1800 h) with controlled temperature conditions (22-24° C.). Fed blood glucose and body-weight was measured on day −2 in the morning between 08:00 AM and 09:00 AM. Animals were randomized into 2 groups according to fed glucose levels (on day −2). […]
Day 1 is the first day of dosing. […] At −15 min, blood glucose was measured (using a glucose analyzer) and animals were dosed with compounds of the invention or vehicle. At time point 0, blood glucose was measured again and glucose was administered by oral gavage (1 g/kg glucose). The blood glucose was then measured at time points 15, 30, 45, 60 and 120 minutes. […] The percentages of AUC inhibition induced by compounds of the invention were calculated as follows: % of AUC inhibition: [1−(AUC compound/AUC vehicule)]*100.

## COc1ccccc1-c1ccc(C(=O)N2[C@@H](c3ccccc3Cl)CC[C@H]2C(=O)O)cc1 [Compound 1, (2S,5R)-5-(2-chlorophenyl)-1-(2′-methoxy-[1,1′-biphenyl]-4-carbonyl)pyrrolidine-2-carboxylic acid]
  % of AUC inhibition (blood glucose, OGTT): 40%

— patent US10017468B2, “Substituted pyrrolidines as G-protein coupled receptor 43 agonists” (Ogeda SA, priority 2009, dated 2018)
